In patent publication US11395847B2, “Acylated GLP-1/GLP-2 dual agonists” (Zealand Pharma A/S, priority 2016, dated 2022):
*1 amine or outer side, *2 acyl side, *3 side chain or, on linkers, in order; H or OH if unused. Where a SMILES comes first, the peptide text is derived from it. Side-chain parts run from the residue outwards. [ ]: non-standard residue; d: D form. The star is where a group is joined. C20 diacid = O=C(O)CCCCCCCCCCCCCCCCCCC(=O)*; γGlu = O=C(O)[C@H](CCC(=O)[*:2])N[*:1]; AEEA = NCCOCCOCC(=O)O; Aib = CC(C)(N)C(=O)O

assay: Chemical stability (RP-HPLC normalized purity after incubation at 40° C.); format: physicochemical; details: pH 6, 40° C., 14-day incubation, 0.2 mg/ml, normalized purity (area-%)
Method: Samples of each test peptide were dissolved in MILLIQ™ water, and the pH of the solution was adjusted to pH 6, 7, 7.5 or 9 using either HCl or NaOH. The final peptide concentration was 0.2 mg/ml. Samples were placed in glass vials and incubated at 40° C. The samples were analyzed by RP-HPLC on a C18 column with gradient elution using an acetonitrile/TFA/water eluent system. The area-percentage (area-%) of the main peak after incubation time T=t (relative to time T=0) was determined by UV spectroscopy at 220 nm.
The purity was first determined as follows: Purity(area-%)=(area of main peak/total area of all peaks)×100.
The purity was then normalized between time points by setting purity at time 0 (T=0) to 100 for each pH value for a given peptide, as follows: Normalized area-% at time t(T=t)=[area-%(T=t)/area-%(T=0)]×100.
The chemical stability assessment results after 14-day incubation (in the form of normalized purity values) are summarized in Table 4.

pH 6 normalized stability	SMILES
A (>90% normalised stability)	CC[C@H](C)[C@H](NC(=O)[C@H](Cc1ccccc1)NC(=O)[C@H](CC(=O)O)NC(=O)[C@H](CCCNC(=N)N)NC(=O)[C@H](C)NC(=O)[C@H](C)NC(=O)[C@H](CCC(N)=O)NC(=O)[C@H](CCCCNC(=O)CC[C@H](NC(=O)CCCCCCCCCCCCCCCCC(=O)O)C(=O)O)NC(=O)[C@H](CC(=O)O)NC(=O)[C@H](CC(C)C)NC(=O)[C@@H](NC(=O)[C@@H](NC(=O)[C@H](C)NC(=O)[C@H](CC(C)C)NC(=O)[C@H](CCC(=O)O)NC(=O)[C@H](CO)NC(=O)[C@H](CO)NC(=O)[C@H](Cc1ccccc1)NC(=O)[C@H](CO)NC(=O)CNC(=O)[C@H](CCC(=O)O)NC(=O)C(C)(C)NC(=O)[C@@H](N)Cc1c[nH]cn1)[C@@H](C)O)[C@@H](C)CC)C(=O)N[C@@H](C)C(=O)N[C@@H](Cc1c[nH]c2ccccc12)C(=O)N[C@@H](CC(C)C)C(=O)N[C@H](C(=O)N[C@@H](CCC(N)=O)C(=O)N[C@@H](Cc1c[nH]cn1)C(=O)N[C@@H](CCCCN)C(=O)N[C@H](C(=O)N[C@H](C(=O)N[C@@H](CC(=O)O)C(=O)O)[C@@H](C)O)[C@@H](C)CC)[C@@H](C)CC [B, reference compound] (HELM PEPTIDE1{H.[Aib].E.G.S.F.S.S.E.L.A.T.I.L.D.K.Q.A.A.R.D.F.I.A.W.L.I.Q.H.K.I.T.D}|PEPTIDE2{[O=C(O)CCCCCCCCCCCCCCCCC(=O)[*:2]].[gGlu]}$PEPTIDE1,PEPTIDE2,16:R3-2:R2$$$V2.0)

same assay, conditions: pH 7, 40° C., 14-day incubation, 0.2 mg/ml, normalized purity (area-%)

SMILES	pH 7 normalized stability
CC[C@H](C)[C@H](NC(=O)[C@H](Cc1ccccc1)NC(=O)[C@H](CC(=O)O)NC(=O)[C@H](CCCNC(=N)N)NC(=O)[C@H](C)NC(=O)[C@H](C)NC(=O)[C@H](CCC(N)=O)NC(=O)[C@H](CCCCNC(=O)CC[C@H](NC(=O)CCCCCCCCCCCCCCCCC(=O)O)C(=O)O)NC(=O)[C@H](CC(=O)O)NC(=O)[C@H](CC(C)C)NC(=O)[C@@H](NC(=O)[C@@H](NC(=O)[C@H](C)NC(=O)[C@H](CC(C)C)NC(=O)[C@H](CCC(=O)O)NC(=O)[C@H](CO)NC(=O)[C@H](CO)NC(=O)[C@H](Cc1ccccc1)NC(=O)[C@H](CO)NC(=O)CNC(=O)[C@H](CCC(=O)O)NC(=O)C(C)(C)NC(=O)[C@@H](N)Cc1c[nH]cn1)[C@@H](C)O)[C@@H](C)CC)C(=O)N[C@@H](C)C(=O)N[C@@H](Cc1c[nH]c2ccccc12)C(=O)N[C@@H](CC(C)C)C(=O)N[C@H](C(=O)N[C@@H](CCC(N)=O)C(=O)N[C@@H](Cc1c[nH]cn1)C(=O)N[C@@H](CCCCN)C(=O)N[C@H](C(=O)N[C@H](C(=O)N[C@@H](CC(=O)O)C(=O)O)[C@@H](C)O)[C@@H](C)CC)[C@@H](C)CC [B, reference compound] (HELM PEPTIDE1{H.[Aib].E.G.S.F.S.S.E.L.A.T.I.L.D.K.Q.A.A.R.D.F.I.A.W.L.I.Q.H.K.I.T.D}|PEPTIDE2{[O=C(O)CCCCCCCCCCCCCCCCC(=O)[*:2]].[gGlu]}$PEPTIDE1,PEPTIDE2,16:R3-2:R2$$$V2.0)	A (>90% normalised stability)
CCCCCCCCCCCCCCCC(=O)NCCC(=O)NCCCC[C@H](NC(=O)[C@H](CC(=O)O)NC(=O)[C@H](CC(C)C)NC(=O)[C@@H](NC(=O)[C@@H](NC(=O)[C@H](C)NC(=O)[C@H](CC(C)C)NC(=O)[C@H](CCC(=O)O)NC(=O)[C@H](CO)NC(=O)[C@@H](NC(=O)[C@H](Cc1ccccc1)NC(=O)[C@H](CO)NC(=O)CNC(=O)[C@H](CCC(=O)O)NC(=O)C(C)(C)NC(=O)[C@@H](N)Cc1c[nH]cn1)[C@@H](C)O)[C@@H](C)O)[C@@H](C)CC)C(=O)N[C@@H](CCC(N)=O)C(=O)N[C@@H](C)C(=O)N[C@@H](C)C(=O)N[C@@H](CCCNC(=N)N)C(=O)N[C@@H](CC(=O)O)C(=O)N[C@@H](Cc1ccccc1)C(=O)N[C@H](C(=O)N[C@@H](C)C(=O)N[C@@H](Cc1c[nH]c2ccccc12)C(=O)N[C@@H](CC(C)C)C(=O)N[C@@H](CCC(N)=O)C(=O)N[C@@H](CCC(N)=O)C(=O)N[C@@H](Cc1c[nH]cn1)C(=O)N[C@@H](CCCCN)C(=O)N[C@H](C(=O)N[C@H](C(=O)N[C@@H](CC(=O)O)C(=O)O)[C@@H](C)O)[C@@H](C)CC)[C@@H](C)CC [Compound 32] (HELM PEPTIDE1{H.[Aib].E.G.S.F.T.S.E.L.A.T.I.L.D.K.Q.A.A.R.D.F.I.A.W.L.Q.Q.H.K.I.T.D}|PEPTIDE2{[CCCCCCCCCCCCCCCC(=O)[*:2]].[bAla]}$PEPTIDE1,PEPTIDE2,16:R3-2:R2$$$V2.0)	A (>90% normalised stability)
CC[C@H](C)[C@H](NC(=O)[C@H](CC(C)C)NC(=O)[C@H](Cc1c[nH]c2ccccc12)NC(=O)[C@H](C)NC(=O)[C@@H](NC(=O)[C@H](Cc1ccccc1)NC(=O)[C@H](CC(=O)O)NC(=O)[C@H](CCCNC(=N)N)NC(=O)[C@H](C)NC(=O)[C@H](C)NC(=O)[C@H](CC(C)C)NC(=O)[C@H](CCCCNC(=O)CC[C@H](NC(=O)CCCCCCCCCCCCCCCCC(=O)O)C(=O)O)NC(=O)[C@H](CC(=O)O)NC(=O)[C@H](CC(C)C)NC(=O)[C@@H](NC(=O)[C@@H](NC(=O)[C@H](C)NC(=O)[C@H](CC(C)C)NC(=O)[C@H](CCC(=O)O)NC(=O)[C@H](CO)NC(=O)[C@@H](NC(=O)[C@H](Cc1ccccc1)NC(=O)[C@H](CO)NC(=O)CNC(=O)[C@H](CCC(=O)O)NC(=O)C(C)(C)NC(=O)[C@@H](N)Cc1c[nH]cn1)[C@@H](C)O)[C@@H](C)O)[C@@H](C)CC)[C@@H](C)CC)C(=O)N[C@@H](C)C(=O)N[C@@H](Cc1c[nH]cn1)C(=O)N[C@@H](CCCCN)C(=O)N[C@H](C(=O)N[C@H](C(=O)N[C@@H](CC(=O)O)C(=O)O)[C@@H](C)O)[C@@H](C)CC [Compound 14] (HELM PEPTIDE1{H.[Aib].E.G.S.F.T.S.E.L.A.T.I.L.D.K.L.A.A.R.D.F.I.A.W.L.I.A.H.K.I.T.D}|PEPTIDE2{[O=C(O)CCCCCCCCCCCCCCCCC(=O)[*:2]].[gGlu]}$PEPTIDE1,PEPTIDE2,16:R3-2:R2$$$V2.0)	A (>90% normalised stability)

The remaining lines, values ahead:

pH 7 normalized stability	SMILES
A (>90% normalised stability)	CC[C@H](C)[C@H](NC(=O)[C@H](CC(C)C)NC(=O)[C@H](Cc1c[nH]c2ccccc12)NC(=O)[C@H](C)NC(=O)[C@@H](NC(=O)[C@H](Cc1ccccc1)NC(=O)[C@H](CC(=O)O)NC(=O)[C@H](CCCNC(=N)N)NC(=O)[C@H](C)NC(=O)[C@H](C)NC(=O)[C@H](CCC(N)=O)NC(=O)[C@H](CCCCNC(=O)COCCOCCNC(=O)[C@H](CCCCN)NC(=O)[C@H](CCC(=O)O)NC(=O)[C@H](CCCCN)NC(=O)CC[C@H](NC(=O)CCCCCCCCCCCCCCCCCCC(=O)O)C(=O)O)NC(=O)[C@H](CC(=O)O)NC(=O)[C@H](CC(C)C)NC(=O)[C@@H](NC(=O)[C@@H](NC(=O)[C@H](C)NC(=O)[C@H](CC(C)C)NC(=O)[C@H](CCC(=O)O)NC(=O)[C@H](CO)NC(=O)[C@@H](NC(=O)[C@H](Cc1ccccc1)NC(=O)[C@H](CO)NC(=O)CNC(=O)[C@H](CCC(=O)O)NC(=O)C(C)(C)NC(=O)[C@@H](N)Cc1c[nH]cn1)[C@@H](C)O)[C@@H](C)O)[C@@H](C)CC)[C@@H](C)CC)C(=O)N[C@@H](C)C(=O)N[C@@H](Cc1c[nH]cn1)C(=O)N[C@@H](CCCCN)C(=O)N[C@H](C(=O)N[C@H](C(=O)N[C@@H](CC(=O)O)C(=O)O)[C@@H](C)O)[C@@H](C)CC [Compound 58] (HELM PEPTIDE1{H.[Aib].E.G.S.F.T.S.E.L.A.T.I.L.D.K.Q.A.A.R.D.F.I.A.W.L.I.A.H.K.I.T.D}|PEPTIDE2{[O=C(O)CCCCCCCCCCCCCCCCCCC(=O)[*:2]].[gGlu].K.E.K.[O=C(COCCOCCN[*:1])[*:2]]}$PEPTIDE1,PEPTIDE2,16:R3-6:R2$$$V2.0)
A (>90% normalised stability)	CC[C@H](C)[C@H](NC(=O)[C@H](Cc1ccccc1)NC(=O)[C@H](CC(=O)O)NC(=O)[C@H](CCCCNC(=O)COCCOCCNC(=O)COCCOCCNC(=O)[C@H](CCCCN)NC(=O)[C@H](CCC(=O)O)NC(=O)[C@H](CCCCN)NC(=O)CC[C@H](NC(=O)CCCCCCCCCCCCCCCCCCC(=O)O)C(=O)O)NC(=O)[C@H](C)NC(=O)[C@H](C)NC(=O)[C@H](CCC(N)=O)NC(=O)[C@H](CCC(=O)O)NC(=O)[C@H](CC(=O)O)NC(=O)[C@H](CC(C)C)NC(=O)[C@@H](NC(=O)[C@@H](NC(=O)[C@H](C)NC(=O)[C@H](CC(C)C)NC(=O)[C@H](CCC(=O)O)NC(=O)[C@H](CO)NC(=O)[C@@H](NC(=O)[C@H](Cc1ccccc1)NC(=O)[C@@H](NC(=O)CNC(=O)[C@H](CCC(=O)O)NC(=O)C(C)(C)NC(=O)[C@@H](N)Cc1c[nH]cn1)[C@@H](C)O)[C@@H](C)O)[C@@H](C)O)[C@@H](C)CC)C(=O)N[C@@H](C)C(=O)N[C@@H](Cc1c[nH]c2ccccc12)C(=O)N[C@@H](CC(C)C)C(=O)N[C@H](C(=O)N[C@@H](CCC(=O)O)C(=O)N[C@@H](Cc1c[nH]cn1)C(=O)N[C@@H](CCCCN)C(=O)N[C@H](C(=O)N[C@H](C(=O)N[C@@H](CC(=O)O)C(=O)O)[C@@H](C)O)[C@@H](C)CC)[C@@H](C)CC [Compound 67] (H-H[Aib]EGTFTSELATILDEQAAK([AEEA-AEEA-Lys-Glu-Lys-γGlu-C20 diacid])DFIAWLIEHKITD-OH)
A (>90% normalised stability)	CC[C@H](C)[C@H](NC(=O)[C@H](Cc1ccccc1)NC(=O)[C@H](CC(=O)O)NC(=O)[C@H](CCCNC(=N)N)NC(=O)[C@H](C)NC(=O)[C@H](C)NC(=O)[C@H](CCC(N)=O)NC(=O)[C@H](CCCCNC(=O)COCCOCCNC(=O)CC[C@H](NC(=O)CCCCCCCCCCCCCCCCC(=O)O)C(=O)O)NC(=O)[C@H](CC(=O)O)NC(=O)[C@H](CC(C)C)NC(=O)[C@@H](NC(=O)[C@@H](NC(=O)[C@H](C)NC(=O)[C@H](CC(C)C)NC(=O)[C@H](CCC(=O)O)NC(=O)[C@H](CO)NC(=O)[C@@H](NC(=O)[C@H](Cc1ccccc1)NC(=O)[C@H](CO)NC(=O)CNC(=O)[C@H](CCC(=O)O)NC(=O)C(C)(C)NC(=O)[C@@H](N)Cc1c[nH]cn1)[C@@H](C)O)[C@@H](C)O)[C@@H](C)CC)C(=O)N[C@@H](C)C(=O)N[C@@H](Cc1c[nH]c2ccccc12)C(=O)N[C@@H](CC(C)C)C(=O)N[C@@H](Cc1ccc(O)cc1)C(=O)N[C@@H](CCC(N)=O)C(=O)N[C@@H](Cc1c[nH]cn1)C(=O)N[C@@H](CCCCN)C(=O)N[C@H](C(=O)N[C@H](C(=O)N[C@@H](CC(=O)O)C(=O)O)[C@@H](C)O)[C@@H](C)CC [Compound 33] (HELM PEPTIDE1{H.[Aib].E.G.S.F.T.S.E.L.A.T.I.L.D.K.Q.A.A.R.D.F.I.A.W.L.Y.Q.H.K.I.T.D}|PEPTIDE2{[O=C(O)CCCCCCCCCCCCCCCCC(=O)[*:2]].[gGlu].[O=C(COCCOCCN[*:1])[*:2]]}$PEPTIDE1,PEPTIDE2,16:R3-3:R2$$$V2.0)
